# Measurements from US9803002B2, “Anti-wall teichoic antibodies and conjugates” (Genentech, Inc., priority 2013, dated 2017).
# Test system: Wood46 strain of S. aureus
# Experiment: Macrophage intracellular killing assay with opsonized, washed bacteria
# Type: cell-based, Staphylococcus aureus
# Details: 10 μg/mL or 0.5 μg/mL
# Description: The Wood46 strain of S. aureus was incubated with 10 μg/mL or 0.5 μg/mL of S4497 antibody, Isotype control-AAC containing a cathepsin B cleavable linker, thio-trastuzumab HC A118C-MC-vc-PAB-(dimethyl-pipBOR) AAC-101, thio-S4497 HC WT (v8), LC V205C-MC-vc-PAB-(dimethylpipBOR) AAC-192, Isotype control-AAC containing a staphopain cleavable linker, thio-trastuzumab HC […]-MP-LAFG-PABC-(piperazinoBOR) (“core peptide” disclosed as SEQ ID NO: 128) or thio-S4497 HC v1-MP-LAFG-PABC-(piperazinoBOR) (“core peptide” disclosed as SEQ ID NO: 128) AAC-193 for 1 hour to permit binding of the AAC to bacteria (FIG. 32). To limit non-specific binding of the AAC, the opsonized bacteria were centrifuged, washed once and resuspended in buffer before being fed to murine macrophages. […] Antibody-antibiotic conjugate, thio-54497 LC v8-MP-LAFG-PABC-(piperazinoBOR) (“core peptide” disclosed as SEQ ID NO: 128)AAC-215 is efficacious in vivo in a MRSA infection model: […]
substance,measurement,value
thio-trastuzumab HC A1118C-MP-LAFG-PABC-(piperazinoBOR),killing of intracellular bacteria,no activity
